In US6613776B2, “Pyrazole compounds useful as protein kinase inhibitors” (Vertex Pharmaceuticals Incorporated, priority 2000, dated 2003):

Assays:
GSK-3β (AA 1-420) = biological target: T1, GSK-3β (AA 1-420) (Homo sapiens, UniProt P49841); assay: Ki determination for the inhibition of GSK-3 (coupled enzyme system); assay type: biochemical; settings: 20 μM ATP, 300 μM peptide, 20 nM GSK-3β, 30° C.
T1 construct: GSK-3β (AA 1-420)
Procedure: Compounds were screened for their ability to inhibit GSK-3β (AA 1-420) activity using a standard coupled enzyme system (Fox et al. (1998) Protein Sci. 7, 2249). Reactions were carried out in a solution containing 100 mM HEPES (pH 7.5), 10 mM MgCl2, 25 mM NaCl, 300 μM NADH, 1 mM DTT and 1.5% DMSO. Final substrate concentrations in the assay were 20 μM ATP (Sigma Chemicals, St Louis, Mo.) and 300 μM peptide (HSSPHQS(PO3H2)EDEEE, American Peptide, Sunnyvale, Calif.). Reactions were carried out at 30° C. and 20 nM GSK-3β. Final concentrations of the components of the coupled enzyme system were 2.5 mM phosphoenolpyruvate, 300 μM NADH, 30 μg/ml pyruvate kinase and 10 μg/ml lactate dehydrogenase.
An assay stock buffer solution was prepared containing all of the reagents listed above with the exception of ATP and the test compound of interest. The assay stock buffer solution (175 μl) was incubated in a 96 well plate with 5 μl of the test compound of interest at final concentrations spanning 0.002 μM to 30 μM at 30° C. for 10 min. Typically, a 12 point titration was conducted by preparing serial dilutions (from 10 mM compound stocks) with DMSO of the test compounds in daughter plates. […] Rates of reaction were obtained using a Molecular Devices Spectramax plate reader (Sunnyvale, Calif.) over 10 min at 30° C. The Ki values were determined from the rate data as a function of inhibitor concentration.

Aurora-2 = biological target: T2, Aurora-2 (Homo sapiens, UniProt O14965); assay: Ki determination for the inhibition of Aurora-2 (coupled enzyme assay); assay type: biochemical; settings: 70 nM Aurora-2, 30° C.
T2 sequence (O14965 1-403): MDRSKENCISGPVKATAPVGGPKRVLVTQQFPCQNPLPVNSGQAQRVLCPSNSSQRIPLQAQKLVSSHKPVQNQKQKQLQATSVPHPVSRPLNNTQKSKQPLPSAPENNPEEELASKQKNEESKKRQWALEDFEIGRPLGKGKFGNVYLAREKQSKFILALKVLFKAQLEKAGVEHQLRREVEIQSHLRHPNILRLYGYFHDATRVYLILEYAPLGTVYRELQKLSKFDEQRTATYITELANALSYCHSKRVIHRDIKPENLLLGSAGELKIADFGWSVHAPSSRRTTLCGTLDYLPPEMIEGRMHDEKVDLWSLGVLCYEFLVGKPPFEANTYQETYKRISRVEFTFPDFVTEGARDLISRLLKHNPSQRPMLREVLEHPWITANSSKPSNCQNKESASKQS
Procedure: Compounds were screened in the following manner for their ability to inhibit Aurora-2 using a standard coupled enzyme assay (Fox et al (1998) Protein Sci 7, 2249).
To an assay stock buffer solution containing 0.1M HEPES 7.5, 10 mM MgCl2, 1 mM DTT, 25 mM NaCl, 2.5 mM phosphoenolpyruvate, […], 30 mg/ml pyruvate kinase, 10 mg/ml lactate dehydrogenase, […], and 800 μM peptide (LRRASLG, American Peptide, Sunnyvale, Calif.) was added a DMSO solution of a compound of the present invention to a final concentration of 30 μM. The resulting mixture was incubated at 30° C. for 10 min. The reaction was initiated by the addition of 10 μL of Aurora-2 stock solution to give a final concentration of 70 nM in the assay. The rates of reaction were obtained by monitoring absorbance at 340 nm over a 5 minute read time at 30° C. using a BioRad Ultramark plate reader (Hercules, Calif.). The Ki values were determined from the rate data as a function of inhibitor concentration.

T1 sequence (P49841 whole entry, the tested form may be a part): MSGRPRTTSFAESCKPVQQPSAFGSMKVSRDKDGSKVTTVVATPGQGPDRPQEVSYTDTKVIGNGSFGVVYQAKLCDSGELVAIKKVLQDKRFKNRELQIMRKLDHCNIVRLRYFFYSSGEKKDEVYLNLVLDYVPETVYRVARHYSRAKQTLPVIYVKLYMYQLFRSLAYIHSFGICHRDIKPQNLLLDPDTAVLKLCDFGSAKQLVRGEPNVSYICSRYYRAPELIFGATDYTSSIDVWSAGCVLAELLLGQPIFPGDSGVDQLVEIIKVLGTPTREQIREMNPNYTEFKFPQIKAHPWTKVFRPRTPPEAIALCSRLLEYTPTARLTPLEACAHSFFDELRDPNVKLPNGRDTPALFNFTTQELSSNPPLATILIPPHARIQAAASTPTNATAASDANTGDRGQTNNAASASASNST

Ki (GSK-3β (AA 1-420)) | Ki (Aurora-2) | melting point | SMILES
0.1 to 1 µM | – | – | COC(=O)c1cc(Nc2ccnc(N3CCCCC3)n2)n[nH]1 [IV-8]
0.1 to 1 µM | 0.1 to 1 µM | > 300 °C | Cc1cc(Nc2nc(N3CCC(C)CC3)nc3nc[nH]c23)n[nH]1 [IV-33, [2-(4-Methylpiperidin-1-yl)-purin-4-yl]-(S-methyl-2H-pyrazol-3-yl)-amine]
